Measured values reported in patent publication US9763445B2, “Safened herbicidal compositions comprising a pyridine carboxylic acid herbicide” (Dow AgroSciences, LLC, priority 2014, dated 2017).

How the values were obtained:
[1] = system: cleavers (GALAP); assay: Postemergence greenhouse trial, % visual injury on cleavers; type: in vivo, Galium aparine; settings: CQC-m 0 g/ha
Experimental: (§1) Seeds of the desired test plant species were planted in Sun Gro MetroMix® 306 planting mixture, which typically has a pH of 6.0 to 6.8 and an organic matter content of about 30 percent, in plastic pots with a surface area of 103.2 square centimeters (cm^2). When required to ensure good germination and healthy plants, a fungicide treatment and/or other chemical or physical treatment was applied. The plants were grown for 7-36 days (d) in a greenhouse with an approximate 14-hour (h) photoperiod which was maintained at about 23° C. during the day and 22° C. during the night. Nutrients and water were added on a regular basis and supplemental lighting was provided with overhead metal halide 1000-Watt lamps as necessary. The plants were employed for testing when they reached the second or third true leaf stage.
(§2) Weighed amounts of technical material were dissolved in a volume of 97:3 volume per volume (v/v) acetone/dimethyl sulfoxide (DMSO) to stock solutions. […] The concentrated stock solutions were diluted with an aqueous mixture of 1.5% v/v of Agri-dex crop oil concentrate to provide the appropriate application rates. Compound requirements are based upon a 12 milliliter (mL) application volume at a rate of 187 liters per hectare (L/ha). Stocks solutions of the safeners were prepared following the same procedure. Spray solutions of the safeners and experimental compound mixtures were prepared by adding the stock solutions to the appropriate amount of dilution solution to form a 12 mL spray solution in two-way combinations. Formulated compounds were applied to the plant material with an overhead Mandel track sprayer equipped with 8002E nozzles calibrated to deliver 187 L/ha over an application area of 0.503 square meters (m^2) at a spray height of 18 inches (43 centimeters (cm)) above average plant canopy. Control plants were sprayed in the same manner with the solvent blank. All herbicide application (component a) rates are in g ae/ha and all safener (component b) rates are in g ai/ha.
(§3) The treated plants and control plants were placed in a greenhouse as described above and watered by sub-irrigation to prevent wash-off of the test compounds. After 20-22 d, the condition of the test plants as compared with that of the control plants was determined visually and scored on a scale of 0 to 100 percent where 0 corresponds to no injury and 100 corresponds to complete kill. The condition of the test plants was compared with that of the control plants as determined visually and scored on a scale of 0 to 100 percent, where 0 corresponds to no injury and 100 corresponds to complete kill. Colby's equation was used to determine the herbicidal effects expected from the mixtures.
(§4) The safener cloquintocet-mexyl was combined with compound 1, compound 2, compound 3, compound 7, compound 8, compound 9, compound 10, compound 11, compound 12, compound 13, compound 14, compound 15, compound 16, compound 17, compound 18, compound 19, and compound 20, and applied to spring wheat (TRZAS), winter wheat (TRZAW), and spring barley (HORVS) and the phytotoxicity of the herbicidal compositions was measured. […]

[2] = system: spring barley (HORVS); assay: Postemergence greenhouse trial, % visual injury on spring barley; type: in vivo, Hordeum vulgare; settings: HORVS, CQC-m 0 g/ha
Experimental: as §1, §2, §3, §4

[3] = system: pigweed (AMARE); assay: Postemergence greenhouse trial, % visual injury on pigweed; type: in vivo, Amaranthus retroflexus; settings: AMARE; for % visual injury, Ob: CQC-m 0 g/ha
Experimental: as §1, §2, §3
(§5) The safener cloquintocet-mexyl was combined with compound 1, compound 2, compound 4, compound 5, and compound 6, and applied to corn/maize (ZEAMX) and spring wheat (TRZAS) and the phytotoxicity of the herbicidal compositions was measured. In addition, the efficacy of the herbicidal composition on velvetleaf (ABUTH, Abutilon theophrasti), pigweed (AMARE, Amaranthus retroflexus), winter rape (BRSNW, Brassica napus), lambsquarters (CHEAL, Chenopodium album), thistle (CIRAR, Cirsium arvense), nutsedge (CYPES, Cyperus esculentus), poinsettia (EPHHL, Euphorbia heterophylla), wild buckwheat (POLCO, Polygonum convolvulus), giant foxtail (SETFA, Setaria faberi), and chickweed (STEME, Stellaria media) was evaluated. […]
The safener cloquintocet-acid and a number of agriculturally acceptable esters and salts (-mexyl, -dimethylammonium salt and -triethylammonium salt) were combined in varying ratios with compound 1 and applied to spring wheat (TRZAS), winter wheat (TRZAW), and spring barley (HORVS), and the phytotoxicity of the herbicidal compositions was measured. […]

[4] = system: spring wheat (TRZAS); assay: Postemergence greenhouse trial, % visual injury on spring wheat; type: in vivo, Triticum aestivum; settings: TRZAS, CQC-m 0 g/ha
Experimental: as §1, §2, §3
The safener cloquintocet-mexyl was combined with compound 1, compound 2, compound 4, compound 5, and compound 6, and applied to corn/maize (ZEAMX) and spring wheat (TRZAS) and the phytotoxicity of the herbicidal compositions was measured. In addition, the efficacy of the herbicidal composition on velvetleaf (ABUTH, Abutilon theophrasti), pigweed (AMARE, Amaranthus retroflexus), winter rape (BRSNW, Brassica napus), lambsquarters (CHEAL, Chenopodium album), thistle (CIRAR, Cirsium arvense), nutsedge (CYPES, Cyperus esculentus), poinsettia (EPHHL, Euphorbia heterophylla), wild buckwheat (POLCO, Polygonum convolvulus), giant foxtail (SETFA, Setaria faberi), and chickweed (STEME, Stellaria media) was evaluated.
as §4

[5] = system: Russian thistle (SASKR); assay: Postemergence greenhouse trial, % visual injury on Russian thistle; type: in vivo, Salsola kali; settings: SASKR, CQC-m 0 g/ha
[6] = system: kochia (KCHSC); assay: Postemergence greenhouse trial, % visual injury on kochia; type: in vivo, Kochia scoparia; settings: Bassia scoparia, post-emergence, KCHSC, applied alone, read-out: % visual injury, Ob
Experimental: as §1, §2
as §3, with “mixtures. […]” for “mixtures.”

[7] = system: wild pansy (VIOTR); assay: Postemergence greenhouse trial, % visual injury on wild pansy; type: in vivo, Viola tricolor; settings: VIOTR, applied alone
Experimental: as §1, §2
as §3, with “mixtures. […]” for “mixtures.”

[8] = system: wild mustard (SINAR); assay: Postemergence greenhouse trial, % visual injury on wild mustard; type: in vivo, Sinapis arvensis; settings: Brassica, post-emergence, SINAR, applied alone, read-out: % visual injury, Ob
Experimental: as §1, §2
as §3, with “mixtures. […]” for “mixtures.”

[9] = system: winter rape (BRSNW); assay: Postemergence greenhouse trial, % visual injury on winter rape; type: in vivo, Brassica napus; settings: Brassica napus, post-emergence, BRSNW, applied alone, read-out: % visual injury, Ob
Experimental: as §1, §2, §3, §5

[10] = system: common poppy (PAPRH); assay: Postemergence greenhouse trial, % visual injury on common poppy; type: in vivo, Papaver rhoeas; settings: Papaver rhoeas, post-emergence, PAPRH, applied alone, read-out: % visual injury, Ob
Experimental: as §1, §2
as §3, with “mixtures. […]” for “mixtures.”

In the case of `C=Cc1c(C(=O)OC)nc(-c2ccc3cc[nH]c3c2F)c(F)c1N` [compound 14], the “% visual injury, Ob” value ([1]; compound 4.380 g/ha) is reported as 10%, the “% visual injury, Ob” value ([1]; compound 8.75 g/ha) is reported as 10% and the “% visual injury, Ob” value ([1]; compound 17.5 g/ha) is reported as 20%. For the same molecule, the “% visual injury, Ob” value ([1]; compound 35 g/ha) was 30%, the “% visual injury, Ob” value ([1]; compound 70 g/ha) was 60% and the “% visual injury, Ob” value ([2]; compound 4.380 g/ha) was 0%. The “% visual injury, Ob” value ([2]; compound 8.75 g/ha) was 0%, the “% visual injury, Ob” value ([2]; compound 17.5 g/ha) was 10% and the “% visual injury, Ob” value ([2]; compound 35 g/ha) was 20%. The “% visual injury, Ob” value ([2]; compound 70 g/ha) was 40%, the “% visual injury, Ob” value ([3]; compound 4.380 g/ha) was 10% and the “% visual injury, Ob” value ([3]; compound 8.75 g/ha) was 10%. For the same molecule, the “% visual injury, Ob” value ([3]; compound 17.5 g/ha) was 20%, the “% visual injury, Ob” value ([4]; compound 4.380 g/ha) was 0% and the “% visual injury, Ob” value ([4]; compound 8.75 g/ha) was 0%. The “% visual injury, Ob” value ([4]; compound 17.5 g/ha) was 0%, the “% visual injury, Ob” value ([4]; compound 35 g/ha) was 10% and the “% visual injury, Ob” value ([4]; compound 70 g/ha) was 30%. For the same molecule, the “% visual injury, Ob” value ([5]; compound 4.380 g/ha) was 0%, the “% visual injury, Ob” value ([5]; compound 8.75 g/ha) was 10% and the “% visual injury, Ob” value ([5]; compound 17.5 g/ha) was 50%. For the same molecule, the “% visual injury, Ob” value ([5]; compound 35 g/ha) was 60% and the “% visual injury, Ob” value ([5]; compound 70 g/ha) was 70%.
For `Nc1c(F)c(-c2ccc3cc[nH]c3c2)nc(C(=O)O)c1Cl` [compound 16], the pest or weed control at 4.375 g/ha ([6]; 4.375 g/ha) was 60%, the pest or weed control at 8.75 g/ha ([6]; 8.75 g/ha) was 70% and the pest or weed control at 17.5 g/ha ([6]; 17.5 g/ha) was 85%. It also gave a pest or weed control at 35 g/ha ([6]; 35 g/ha) of 90%, a pest or weed control at 70 g/ha ([6]; 70 g/ha) of 90% and a pest or weed control at 4.375 g/ha ([3]; Amaranthus retroflexus, post-emergence, 4.375 g/ha, applied alone, read-out: % visual injury, Ob) of 70%. For the same molecule, the pest or weed control at 8.75 g/ha ([3]; Amaranthus retroflexus, post-emergence, 8.75 g/ha, applied alone, read-out: % visual injury, Ob) was 80%, the pest or weed control at 17.5 g/ha ([3]; Amaranthus retroflexus, post-emergence, 17.5 g/ha, applied alone, read-out: % visual injury, Ob) was 85% and the pest or weed control at 35 g/ha ([3]; Amaranthus retroflexus, post-emergence, 35 g/ha, applied alone, read-out: % visual injury, Ob) was 100%. The pest or weed control at 70 g/ha ([3]; Amaranthus retroflexus, post-emergence, 70 g/ha, applied alone, read-out: % visual injury, Ob) was 100%, the “% visual injury, Ob” value ([7]; 4.375 g/ha) was 10% and the “% visual injury, Ob” value ([7]; 8.75 g/ha) was 10%. For the same molecule, the “% visual injury, Ob” value ([7]; 17.5 g/ha) was 20%, the “% visual injury, Ob” value ([7]; 35 g/ha) was 30% and the “% visual injury, Ob” value ([7]; 70 g/ha) was 40%. The pest or weed control at 4.375 g/ha ([8]; 4.375 g/ha) was 90%, the pest or weed control at 8.75 g/ha ([8]; 8.75 g/ha) was 93% and the pest or weed control at 17.5 g/ha ([8]; 17.5 g/ha) was 95%. For the same molecule, the pest or weed control at 35 g/ha ([8]; 35 g/ha) was 100%, the pest or weed control at 70 g/ha ([8]; 70 g/ha) was 100% and the plant injury at 4.375 g/ha ([9]; 4.375 g/ha) was 30%. It also gave a plant injury at 8.75 g/ha ([9]; 8.75 g/ha) of 40%, a plant injury at 17.5 g/ha ([9]; 17.5 g/ha) of 65% and a plant injury at 35 g/ha ([9]; 35 g/ha) of 70%. The plant injury at 70 g/ha ([9]; 70 g/ha) was 90%, the pest or weed control at 4.375 g/ha ([10]; 4.375 g/ha) was 70% and the pest or weed control at 8.75 g/ha ([10]; 8.75 g/ha) was 70%. For the same molecule, the pest or weed control at 17.5 g/ha ([10]; 17.5 g/ha) was 100%, the pest or weed control at 35 g/ha ([10]; 35 g/ha) was 100% and the pest or weed control at 70 g/ha ([10]; 70 g/ha) was 100%.
